Like-named read-outs stand apart in the source and are kept apart here.
Key:
[1] = molecular target: DNA-PK (DNA-dependent protein kinase) (Homo sapiens, UniProt P78527); assay: Inhibitory activity against DNA-PK (p53 substrate, HTRF); format: biochemical
Protocol: (§1) DNA-PK kinase solution (concentration: 0.15 ng/μL) was added to assay wells at 6 μL/well, and different compounds dissolved in DMSO were added to the assay wells separately using a nanoliter pipettor, such that the final concentrations of the compounds were 10000 nM to 2.44 nM. In this experiment, the wells were set in duplicate, and a control well was set. After incubation of the above system for 30 min at room temperature, ATP (100 μM) was mixed with p53 substrate (50 nM) at a ratio of 1:1, and the mixture was added at 4 μL/well. The resulting mixture was left to react at room temperature for 2 h, and then 5 μL of EDTA was added to terminate the reaction, followed by addition of 5 μL of detection antibodies, Mab Anti-phospho p53 and Mab Anti GST-d2 (manufacturer: perkinelmer). The mixture was incubated at room temperature for 1 h. The plate was read using a PerkinElmer Envision multifunctional microplate reader (excitation: 320 nm, emission: 620 nm/665 nm), and IC50 was calculated by four-parameter fitting.

ATM kinase = ATM kinase (Homo sapiens, UniProt Q13315); assay: Inhibitory activity against ATM kinase (p53 substrate, HTRF); format: biochemical
Protocol: as §1, with “ATM” for “DNA-PK”, “25” for “0.15”

[2] = molecular target: ATR/ATPIP (ATR-interacting protein) kinase (Homo sapiens, UniProt Q13535); assay: Inhibitory activity against ATR kinase (p53 substrate, HTRF); format: biochemical
Sequence of ATR/ATPIP (ATR-interacting protein) kinase (Q13535 whole entry): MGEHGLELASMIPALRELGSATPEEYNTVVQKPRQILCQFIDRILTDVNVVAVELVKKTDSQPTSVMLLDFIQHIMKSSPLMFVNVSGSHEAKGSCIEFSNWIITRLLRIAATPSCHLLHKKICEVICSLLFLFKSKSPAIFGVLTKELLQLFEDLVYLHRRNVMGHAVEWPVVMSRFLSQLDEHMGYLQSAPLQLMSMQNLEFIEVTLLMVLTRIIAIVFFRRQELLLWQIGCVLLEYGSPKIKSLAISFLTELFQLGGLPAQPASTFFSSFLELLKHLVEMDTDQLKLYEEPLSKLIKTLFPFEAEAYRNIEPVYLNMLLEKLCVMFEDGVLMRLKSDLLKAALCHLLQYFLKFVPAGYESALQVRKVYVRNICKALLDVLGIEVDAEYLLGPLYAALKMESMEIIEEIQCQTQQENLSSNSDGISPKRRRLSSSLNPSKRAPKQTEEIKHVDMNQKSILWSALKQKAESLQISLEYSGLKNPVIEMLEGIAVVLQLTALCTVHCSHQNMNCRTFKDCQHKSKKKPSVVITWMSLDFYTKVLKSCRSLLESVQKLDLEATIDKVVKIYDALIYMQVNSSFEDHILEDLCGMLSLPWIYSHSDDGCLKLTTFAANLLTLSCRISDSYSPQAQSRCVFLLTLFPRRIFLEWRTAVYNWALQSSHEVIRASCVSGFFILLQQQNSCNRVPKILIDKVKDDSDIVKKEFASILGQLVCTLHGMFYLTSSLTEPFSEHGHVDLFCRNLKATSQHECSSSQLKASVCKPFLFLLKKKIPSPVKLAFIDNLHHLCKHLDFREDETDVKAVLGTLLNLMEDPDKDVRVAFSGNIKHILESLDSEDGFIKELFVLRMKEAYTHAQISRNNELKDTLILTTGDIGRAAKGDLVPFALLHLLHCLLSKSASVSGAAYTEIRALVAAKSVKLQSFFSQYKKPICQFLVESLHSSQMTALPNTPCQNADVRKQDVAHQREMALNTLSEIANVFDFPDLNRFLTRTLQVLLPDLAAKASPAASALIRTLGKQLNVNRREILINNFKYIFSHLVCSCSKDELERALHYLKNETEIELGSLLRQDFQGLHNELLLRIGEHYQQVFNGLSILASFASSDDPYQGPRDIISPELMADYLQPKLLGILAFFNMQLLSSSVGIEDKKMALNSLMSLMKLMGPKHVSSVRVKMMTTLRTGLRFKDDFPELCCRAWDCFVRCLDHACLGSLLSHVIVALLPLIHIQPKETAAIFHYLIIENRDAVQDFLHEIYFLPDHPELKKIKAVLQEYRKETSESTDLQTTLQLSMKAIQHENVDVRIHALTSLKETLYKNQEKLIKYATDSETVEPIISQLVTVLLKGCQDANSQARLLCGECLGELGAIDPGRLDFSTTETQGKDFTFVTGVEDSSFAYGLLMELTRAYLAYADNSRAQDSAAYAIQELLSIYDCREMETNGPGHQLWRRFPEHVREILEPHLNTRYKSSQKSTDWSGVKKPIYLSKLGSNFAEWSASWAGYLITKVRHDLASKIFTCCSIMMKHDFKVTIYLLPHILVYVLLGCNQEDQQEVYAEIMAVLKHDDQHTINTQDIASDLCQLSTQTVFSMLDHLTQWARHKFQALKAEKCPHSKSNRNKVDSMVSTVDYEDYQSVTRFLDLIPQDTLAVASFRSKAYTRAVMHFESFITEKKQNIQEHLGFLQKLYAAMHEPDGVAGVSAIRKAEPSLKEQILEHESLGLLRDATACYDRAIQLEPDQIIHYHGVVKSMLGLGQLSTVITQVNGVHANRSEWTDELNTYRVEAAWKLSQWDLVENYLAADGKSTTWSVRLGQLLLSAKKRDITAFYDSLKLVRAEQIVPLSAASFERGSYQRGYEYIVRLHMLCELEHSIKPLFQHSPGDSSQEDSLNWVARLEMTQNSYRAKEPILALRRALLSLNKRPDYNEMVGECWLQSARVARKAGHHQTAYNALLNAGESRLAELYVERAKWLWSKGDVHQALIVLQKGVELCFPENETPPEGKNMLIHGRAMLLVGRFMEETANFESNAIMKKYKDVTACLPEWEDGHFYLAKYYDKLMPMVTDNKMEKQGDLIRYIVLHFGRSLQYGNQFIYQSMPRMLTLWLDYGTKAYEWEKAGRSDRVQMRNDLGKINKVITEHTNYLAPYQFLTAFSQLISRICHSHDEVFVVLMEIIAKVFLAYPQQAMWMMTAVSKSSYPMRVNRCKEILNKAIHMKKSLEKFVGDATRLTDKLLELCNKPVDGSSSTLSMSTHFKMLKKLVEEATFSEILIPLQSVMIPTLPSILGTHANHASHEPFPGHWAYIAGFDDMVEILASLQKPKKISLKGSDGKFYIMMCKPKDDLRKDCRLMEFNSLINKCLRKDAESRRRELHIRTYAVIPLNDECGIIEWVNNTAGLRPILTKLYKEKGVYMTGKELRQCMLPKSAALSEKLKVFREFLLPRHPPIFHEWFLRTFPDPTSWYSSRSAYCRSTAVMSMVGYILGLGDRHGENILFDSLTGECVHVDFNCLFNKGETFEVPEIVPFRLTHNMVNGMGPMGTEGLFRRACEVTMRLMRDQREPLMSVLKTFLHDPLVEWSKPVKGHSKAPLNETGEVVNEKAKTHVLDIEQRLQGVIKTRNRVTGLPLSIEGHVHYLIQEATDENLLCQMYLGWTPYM
Sequence of ATR/ATPIP (ATR-interacting protein) kinase (Q8WXE1 whole entry partner): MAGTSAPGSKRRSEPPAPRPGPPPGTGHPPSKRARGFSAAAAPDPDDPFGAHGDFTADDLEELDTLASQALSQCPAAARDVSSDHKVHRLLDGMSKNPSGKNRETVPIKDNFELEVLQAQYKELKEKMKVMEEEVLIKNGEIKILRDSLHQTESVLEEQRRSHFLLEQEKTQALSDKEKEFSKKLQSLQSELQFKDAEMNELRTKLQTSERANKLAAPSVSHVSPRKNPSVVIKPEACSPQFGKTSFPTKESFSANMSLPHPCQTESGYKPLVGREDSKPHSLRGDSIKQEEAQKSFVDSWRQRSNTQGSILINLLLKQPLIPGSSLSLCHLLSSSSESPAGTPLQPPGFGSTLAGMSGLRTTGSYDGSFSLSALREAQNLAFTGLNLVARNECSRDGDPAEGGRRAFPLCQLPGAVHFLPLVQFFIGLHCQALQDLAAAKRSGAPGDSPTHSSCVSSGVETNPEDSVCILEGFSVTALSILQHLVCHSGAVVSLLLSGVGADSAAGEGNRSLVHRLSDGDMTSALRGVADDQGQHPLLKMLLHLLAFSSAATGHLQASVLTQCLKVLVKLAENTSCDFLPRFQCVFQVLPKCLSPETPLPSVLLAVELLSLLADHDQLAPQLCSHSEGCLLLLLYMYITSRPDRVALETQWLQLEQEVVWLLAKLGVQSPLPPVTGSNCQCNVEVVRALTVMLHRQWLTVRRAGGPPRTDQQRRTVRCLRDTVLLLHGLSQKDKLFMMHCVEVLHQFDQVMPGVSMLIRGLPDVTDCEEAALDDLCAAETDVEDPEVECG
Protocol: as §1, with “ATR/ATPIP (ATR-interacting protein)” for “DNA-PK”, “50” for “0.15”, “(5” for “(100”

[3] = system: CHK2 phosphorylation of NCI-H2228 cells; assay: Inhibitory activity against CHK2 phosphorylation of NCI-H2228 cells (p-CHK2 Thr68 AlphaLISA); format: cell-based; conditions: Homo sapiens
Protocol: NCI-H2228 cells in a good growth state were collected, added to a centrifuge tube, adjusted to a cell density of 1.25×10^6 cells/mL, and seeded in a 384-well plate (8 μL/well). The cells were equilibrated in a cell incubator for 1.5 h, and then compounds were added using a nanoliter pipettor, such that the final concentrations of the compounds were 200 nM to 0.049 nM. In this experiment, the wells were set in duplicate, and a control well was set. After the mixture was further cultured for 1 h in the cell incubator, an assay was performed using a p-CHK2 (Thr68) assay kit (manufacturer: perkinelmer) and the Envision microplate reader AlphaLISA program. A four-parameter analysis was performed, a dose-response curve was fit, and IC50 was calculated.

[4] = In vivo pharmacokinetics (Table 4); conditions: for AUC(0-inf) / AUC(0-t) / half-life / MRT last / Vd / Cmax / Tmax: plasma; for MRT last: read-out: MRT(0-t); for Vd: read-out: Vz

SMILES	IC50 [1] [nM]	IC50 (ATM kinase) [nM]	IC50 [2] [nM]	IC50 [3] [nM]	other results
CC(C)n1c(=O)n(N)c2cnc3ccc(-c4ccc(OCCCN5CCCCC5)nc4)cc3c21 [Example 1]	> 1000	< 50	289		
CC(C)n1c(=O)n(N)c2cnc3cc(F)c(-c4ccc(OCCCN(C5CC5)C5CC5)nc4)cc3c21 [Example 4]	> 1000	< 50	> 1000		
Nn1c(=O)n(C2CCOCC2)c2c3cc(-c4ccc(OCCCN5CCCC5)nc4)c(F)cc3ncc21 [Example 5]	> 1000	< 50	> 1000	< 50	
Nn1c(=O)n(C2CCOCC2)c2c3cc(-c4ccc(OCCCN(C5CC5)C5CC5)nc4)c(F)cc3ncc21 [Example 6]	> 1000	< 50	> 1000		
CNn1c(=O)n(C(C)C)c2c3cc(-c4ccc(OCCCN5CCCCC5)nc4)c(F)cc3ncc21 [Example 7]	> 1000	< 50	> 1000	< 50	
[2H]C([2H])([2H])Nn1c(=O)n(C(C)C)c2c3cc(-c4ccc(OCCCN5CCCCC5)nc4)c(F)cc3ncc21 [Example 8]	> 1000	< 50	> 1000		
COc1cc2ncc3c(c2cc1-c1ccc(OCCCN2CCCCC2)nc1)n(C1CC1)c(=O)n3N [Example 10]	> 1000	< 50	> 1000		
COc1cc2ncc3c(c2cc1-c1ccc(OCCCN2CCCC2)nc1)n(C1CC1)c(=O)n3N [Example 11]	> 1000	< 50	> 1000	< 50	
COC1CCC(n2c(=O)n(N)c3cnc4cc(F)c(-c5ccc(OCCCN6CCCCC6)nc5)cc4c32)C1 (stereo not drawn) [Example 12]	> 1000	< 50	> 1000		
COC1CCC(n2c(=O)n(N)c3cnc4cc(F)c(-c5ccc(OCCCN6CCCC6)nc5)cc4c32)C1 (stereo not drawn) [Example 13]	> 1000	< 50	> 1000	< 50	
COC1CCC(n2c(=O)n(N)c3cnc4cc(F)c(-c5ccc(OCCCN(C)C)nc5)cc4c32)C1 (stereo not drawn) [Example 14]	> 1000	< 50	> 1000	< 50	
Nn1c(=O)n(C2CCOCC2)c2c3cc(-c4ccc(OCCCN5CCCCC5)nc4)c(F)cc3ncc21 [Example 15]	> 1000	< 50	> 1000		
COc1cc2ncc3c(c2cc1-c1ccc(OCCCN2CCCCC2)nc1)n(C(C)C)c(=O)n3N [Example 16]	> 1000	< 50	> 1000		
COc1cc2ncc3c(c2cc1-c1ccc(OCCCN2CCCC2)nc1)n(C(C)C)c(=O)n3N [Example 17]	> 1000	< 50	> 1000	< 50	
COC1CC(n2c(=O)n(N)c3cnc4cc(F)c(-c5ccc(OCCCN6CCCCC6)nc5)cc4c32)C1 (stereo not drawn) [Example 20]	> 1000	< 50	> 1000	< 50	
COC1CC(n2c(=O)n(N)c3cnc4cc(F)c(-c5ccc(OCCCN(C)C)nc5)cc4c32)C1 (stereo not drawn) [Example 21]	> 1000	< 50	> 1000	< 50	

SMILES	IC50 [1] [nM]	IC50 (ATM kinase) [nM]	IC50 [2] [nM]	IC50 [3] [nM]	other results
CC(C)n1c(=O)n(N)c2cnc3cc(F)c(-c4ccc(OCC5CC(N6CCCC6)C5)nc4)cc3c21 (stereo not drawn) [Example 22]	> 1000	< 50		< 50	
CC(C)n1c(=O)n(N)c2cnc3cc(F)c(-c4ccc(OCCCN5CC(F)C5)nc4)cc3c21 [Example 23]	> 1000	< 50		< 50	
CC(C)n1c(=O)n(N)c2cnc3cc(F)c(-c4ccc(OCCCN5CC(F)(F)C5)nc4)cc3c21 [Example 24]	> 1000	< 50		< 50	
CC(C)n1c(=O)n(N)c2cnc3cc(F)c(-c4ccc(OCCCN5CCC(CF)C5)nc4)cc3c21 (stereo not drawn) [Example 25]	> 1000	< 50		< 50	
CC(C)n1c(=O)n(N)c2cnc3cc(F)c(-c4ccc(OCCCN5CCC(F)(F)C5)nc4)cc3c21 [Example 26]	> 1000	< 50		< 50	
CC(C)n1c(=O)n(N)c2cnc3cc(F)c(-c4ccc(OCCCN5C6CCC5CC6)nc4)cc3c21 [Example 27]	> 1000	< 50		< 50	Absolute F ([4]; IG 10 mg/kg vs IV 1 mg/kg): 115.39%; CLz ([4]; IV, 1 mg/kg): 59.7 mL/min/kg; AUC(0-inf) ([4]; iv, 1 mg/kg): 280 ng·h/mL; AUC(0-t) ([4]; iv, 1 mg/kg): 271 ng·h/mL; half-life ([4]; iv, 1 mg/kg): 1.87 h; MRT last ([4]; iv, 1 mg/kg): 1.43 h; Vd ([4]; iv, 1 mg/kg): 6.11 L/kg; AUC(0-inf) ([4]; po, IG, 10 mg/kg): 3190 ng·h/mL; AUC(0-t) ([4]; po, IG, 10 mg/kg): 3130 ng·h/mL; Cmax ([4]; po, IG, 10 mg/kg): 342 ng/mL; Tmax ([4]; po, IG, 10 mg/kg): 2 h; half-life ([4]; po, IG, 10 mg/kg): 4.12 h; MRT last ([4]; po, IG, 10 mg/kg): 5.7 h
CC(C)n1c(=O)n(N)c2cnc3cc(F)c(-c4ccc(OCCCN5CC(CF)C5)nc4)cc3c21 [Example 28]	> 1000	< 50		< 50	AUC(0-inf) ([4]; iv, 1 mg/kg): 2240 ng·h/mL; AUC(0-t) ([4]; iv, 1 mg/kg): 2230 ng·h/mL; half-life ([4]; iv, 1 mg/kg): 3.1 h; MRT last ([4]; iv, 1 mg/kg): 3.24 h; Vd ([4]; iv, 1 mg/kg): 1.5 L/kg; AUC(0-inf) ([4]; po, IG, 10 mg/kg): 17300 ng·h/mL; AUC(0-t) ([4]; po, IG, 10 mg/kg): 17200 ng·h/mL; Cmax ([4]; po, IG, 10 mg/kg): 1630 ng/mL; Tmax ([4]; po, IG, 10 mg/kg): 4 h; half-life ([4]; po, IG, 10 mg/kg): 3.04 h; MRT last ([4]; po, IG, 10 mg/kg): 5.56 h
CC(C)n1c(=O)n(N)c2cnc3cc(F)c(-c4ccc(OCCCN5CC6(CCC6)C5)nc4)cc3c21 [Example 29]	> 1000	< 50		< 50	AUC(0-inf) ([4]; iv, 1 mg/kg): 3160 ng·h/mL; AUC(0-t) ([4]; iv, 1 mg/kg): 3140 ng·h/mL; half-life ([4]; iv, 1 mg/kg): 3.22 h; MRT last ([4]; iv, 1 mg/kg): 3.29 h; Vd ([4]; iv, 1 mg/kg): 1.09 L/kg; AUC(0-inf) ([4]; po, IG, 10 mg/kg): 27300 ng·h/mL; AUC(0-t) ([4]; po, IG, 10 mg/kg): 27000 ng·h/mL; Cmax ([4]; po, IG, 10 mg/kg): 2300 ng/mL; Tmax ([4]; po, IG, 10 mg/kg): 4 h; half-life ([4]; po, IG, 10 mg/kg): 3.51 h; MRT last ([4]; po, IG, 10 mg/kg): 5.99 h
COc1cc2ncc3c(c2cc1-c1ccc(OCCCN2CCCCC2)nc1)n(-c1c(F)cncc1OC)c(=O)n3N [Example 30]	> 10000	< 50	8090		
COc1cc2ncc3c(c2cc1-c1ccc(OCCCN2CCCC2)nc1)n(-c1c(F)cncc1OC)c(=O)n3N [Example 31]	> 10000	< 50	8720	< 50	
CC(C)n1c(=O)n(N)c2nnc3cc(F)c(-c4ccc(OCCCN5CCCCC5)nc4)cc3c21 [Example 32]				< 50	
CNn1c(=O)n(C(C)C)c2c3cc(-c4ccc(OCCCN5CCCCC5)nc4)c(F)cc3nnc21 [Example 33]	> 10000	< 50	> 10000		
CC(C)n1c(=O)n(N)c2nnc3cc(F)c(-c4ccc(OCCCN5CCCC5)nc4)cc3c21 [Example 34]	> 10000	< 50	> 10000		
CNn1c(=O)n(C(C)C)c2c3cc(-c4ccc(OCCCN5CCCC5)nc4)c(F)cc3nnc21 [Example 35]	> 10000	< 50	> 10000		
Nn1c(=O)n(C2CC2)c2c3cc(-c4ccc(OCCCN5CCCCC5)nc4)c(F)cc3nnc21 [Example 36]	> 10000	< 50	> 10000		
Nn1c(=O)n(C2CC2)c2c3cc(-c4ccc(OCCCN5CCCC5)nc4)c(F)cc3nnc21 [Example 37]	> 10000	< 50	> 10000		
